{"source": "patent US4224329A", "about": "“2-Substitute d-trans-5-aryl-2,3,4,4a,5,9b-hexahydro-1H-pyrido[4,3-b]indoles” (Pfizer Inc., priority 1979, dated 1980)", "key": {"Amphetamine Stereotypy": {"system": "Amphetamine Stereotypy", "assay": "Antagonism of Amphetamine Stereotypy in Rats (ED50 for blocking characteristic amphetamine cage movement)", "type": "in vivo", "conditions": "s.c., hydrochloride", "experimental": "The effects of the compounds of the present invention on prominent amphetamine-induced symptoms were studied in rats by a rating scale modeled after the one reported by Quinton and Halliwell, and Weissman. Groups of five rats were placed in a covered plastic cage measuring approximately 26 cm.×42 cm.×16 cm. […] They were then treated 1, 5 and 24 hrs. later with d-amphetamine sulfate, 5 mg./kg. intraperitoneally (i.p.). […] On the basis of dose-response data after amphetamine it was possible to determine the effective dose of the compound necessary to antagonize or block the characteristic amphetamine behavior of cage movement for fifty percent of the rats tested (ED50). The time of rating chosen coincides with the peak action of amphetamine which is 60-80 min. after treatment with this agent.\nEmploying the above-described procedure, the following 4a,9b-trans compounds were tested for their ability to block the behavior effects of amphetamine, the results being reported as the ED50 in mg./kg. at the indicated times: [drawing 30]\nA. The following results were obtained on the mixture of diastereomers for those compounds wherein R contains a secondary alcohol group and on the single diastereomer of the other 4a, 9b-trans hexahydro-pyrido-indoles.\nB. The results of tests in which compounds of the invention reported in Part A, above are compared with the corresponding δ-substituted-5-aryl-1,2,3,4-tetrahydropyrido[4,3-b]indoles of U.S. Pat. No. 4,001,263 are summarized below. For each pair the results obtained on the prior art compound (a) are given first and the results for the compound of the invention (b) are given second. Where indicated the test compound was also administered orally (p.o.) and tests were carried out for 48 hours.\nC. […] In each case the compounds are of the formula\nThe tests were carried out for 72 hours."}, "dopamine receptors": {"biological_target": "dopamine receptors (Rattus norvegicus, UniProt P61169)", "sequence (P61169 whole entry)": "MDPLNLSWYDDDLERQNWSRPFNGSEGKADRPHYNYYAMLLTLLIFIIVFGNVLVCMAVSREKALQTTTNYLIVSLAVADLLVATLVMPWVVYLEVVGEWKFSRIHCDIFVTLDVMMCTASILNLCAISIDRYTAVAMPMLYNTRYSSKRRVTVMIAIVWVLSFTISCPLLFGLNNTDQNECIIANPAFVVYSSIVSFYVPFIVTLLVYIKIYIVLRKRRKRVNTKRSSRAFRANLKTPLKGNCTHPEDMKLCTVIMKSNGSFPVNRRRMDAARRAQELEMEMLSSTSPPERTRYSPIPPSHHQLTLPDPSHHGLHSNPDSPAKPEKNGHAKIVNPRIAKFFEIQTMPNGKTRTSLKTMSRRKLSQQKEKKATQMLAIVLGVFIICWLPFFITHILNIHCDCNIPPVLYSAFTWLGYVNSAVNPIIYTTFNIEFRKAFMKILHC", "assay": "Inhibition of 3H-Spiroperidol Binding to Dopamine Receptors (rat corpus striatum)", "set-up": "species or system rats (Sprague-Dawley CD males)", "conditions": "0.5 nM 3H-spiroperidol, 10 minutes at 37° C."}}, "note": "Structures can show the parent of a compound that is named as a salt.", "data": [{"smiles": "OC(CCCN1CC[C@@H]2[C@@H](C1)c1cc(F)ccc1N2c1ccc(F)cc1)c1ccc(F)cc1", "note": "(single isomer, unassigned) [γ, trans 8-fluoro-5-(p-fluorophenyl)-2-[4-hydroxy-4(p-fluorophenyl)butyl]-2,3,4,4a,5,9b-hexahydro-1H-pyrido[4,3-b]indole hydrochloride]", "values": [{"measurement": "ED50, 24 Hrs.", "setting": "Amphetamine Stereotypy; 24 hrs, Part C, isomers of Examples 13 and 14, 1440 min", "result": "32-100 micrograms/kilograms"}, {"measurement": "ED50, 48 Hrs.", "setting": "Amphetamine Stereotypy; 48 hrs, Part D, enantiomers by synthesis of Example 21, 2880 min", "result": "ca. 1 mg./kg."}, {"measurement": "ED50, 72 Hrs.", "setting": "Amphetamine Stereotypy; 72 hrs, Part D, enantiomers by synthesis of Example 21, 4320 min", "result": "> 1", "unit": "mg/kg"}, {"measurement": "IC50", "setting": "dopamine receptors", "result": 25, "unit": "nM"}]}]}
